Assay results as given in patent publication US11554171B2, “Compounds and methods for the targeted degradation of bromodomain-containing proteins” (Arvinas Operations, Inc., priority 2015, dated 2023).

Tested on: c-myc in 22RV-1 cells
Experiment: Human c-myc ELISA assay
Type: cell-based
Settings: Homo sapiens; for Emax: 22Rv1, 18 h, read-out: Degradation of BRD4: Maximum inhibition (%) c-Myc ELISA in 22RV1 cells; for DC50: 22Rv1, read-out: Degradation of BRD4: DC50 (uM) c-Myc ELISA in 22RV1 cells
Experimental: 22RV-1 cells are seeded at 30,000 cells/well at a volume of 75 μL/well in RPMI+10% FBS media in 96-well plates and grown overnight at 37 C. Cells are dosed with compounds at 4× concentration diluted in 0.4% DMSO; compounds are serially diluted 1:3 for 8-point dose curve. 25 ul of compounds is added to cells for a final concentration starting at 300 nM-0.3 nM or 1 uM-1 nM in 0.1% DMSO and incubated for 18 hrs. Media is aspirated, cells washed 1× with PBS and aspirated. Cells are lysed in 50 ul RIPA buffer (50 mM Tris pH8, 150 mM NaCl, 1% Tx-100, 0.1% SDS, 0.5% sodium deoxycholate) supplemented with protease and phosphatase inhibitors. Plates are incubated on ice for 15 minutes then centrifuged at 4 C for 10 min at 4000 rpm. Add 50 ul of cleared lysate from 96-well assay plate into 96-well c-myc ELISA plate (Novex, Life Technologies Catalog #KH02041). Reconstitute c-myc standard with standard diluent buffer; standard curve range is 333 pg/ml-0 pg/ml, diluted 1:2 for 8-point dose curve. The rest of the assay was performed following the protocol from the c-myc ELISA kit. Data is analyzed and plotted using GraphPad Prism software. Compounds described in this application were assayed and c-myc suppression potency is listed in the following Table (A: DC50<10 nM; B: DC50 10-100 nM; C: DC50: 100-1000 nM; D: DC50>1000 nM)

SMILES | DC50 | Emax
Cc1ncsc1-c1ccc([C@H](C)NC(=O)[C@@H]2C[C@@H](O)CN2C(=O)[C@@H](NC(=O)c2cc3ccc(OCCNC(=O)C[C@@H]4N=C(c5ccc(Cl)cc5)c5c(sc(C)c5C)-n5c(C)nnc54)cc3o2)C(C)(C)C)cc1 [Example 210, (2S,4R)-1-[(2S)-2-{[6-(2-{2-[(9S)-7-(4-chlorophenyl)-4,5,13-trimethyl-3-thia-1,8,11,12-tetraazatricyclo[8.3.0.0^2,^6]trideca-2(6),4,7,10,12-pentaen-9-yl]acetamido}ethoxy)-1-benzofuran-2-yl]formamido}-3,3-dimethylbutanoyl]-4-hydroxy-N-[(1S)-1-[4-(4-methyl-1,3-thiazol-5-yl)phenyl]ethyl]pyrrolidine-2-carboxamide] | < 0.01 µM | 100%
Cc1ncsc1-c1ccc(CNC(=O)[C@@H]2C[C@@H](O)CN2C(=O)[C@@H](NC(=O)Cc2ccc3cc(CCNC(=O)C[C@@H]4N=C(c5ccc(Cl)cc5)c5c(sc(C)c5C)-n5c(C)nnc54)oc3c2)C(C)(C)C)cc1 [Example 97] | < 0.01 µM | 100%
Cc1ncsc1-c1ccc([C@H](C)NC(=O)[C@@H]2C[C@@H](O)CN2C(=O)[C@@H](NC(=O)CCc2cccc(OCCNC(=O)C[C@@H]3N=C(c4ccc(Cl)cc4)c4c(sc(C)c4C)-n4c(C)nnc43)c2)C(C)(C)C)cc1 [Example 85] | < 0.01 µM | 100%
Cc1ncsc1-c1ccc(CNC(=O)[C@@H]2C[C@@H](O)CN2C(=O)[C@H](C(C)C)n2cc(-c3ccnc(O[C@H]4C[C@@H](NC(=O)C[C@@H]5N=C(c6ccc(Cl)cc6)c6c(sc(C)c6C)-n6c(C)nnc65)C4)c3)cn2)cc1 [Example 178, (2S,4R)-4-hydroxy-N-{[4-(4-methyl-1,3-thiazol-5-yl)phenyl]methyl}-1-[(2S)-3-methyl-2-(4-{2-[(1,3-cis)-3-{2-[(9S)-7-(4-chlorophenyl)-4,5,13-trimethyl-3-thia-1,8,11,12-tetraazatricyclo[8.3.0.0^2,6]trideca-2(6),4,7,10,12-pentaen-9-yl]acetamido}cyclobutoxy]pyridin-4-yl}-1H-pyrazol-1-yl)butanoyl]pyrrolidine-2-carboxamide] | 0.01 to 0.1 µM | 99%
Cc1ncsc1-c1ccc([C@H](C)NC(=O)[C@@H]2C[C@@H](O)CN2C(=O)[C@@H](NC(=O)CN2CCC(O[C@H]3C[C@H](NC(=O)C[C@@H]4N=C(c5ccc(Cl)cc5)c5c(sc(C)c5C)-n5c(C)nnc54)C3)CC2)C(C)(C)C)cc1 [Example 306, (2S,4R)-1-[(2S)-3,3-dimethyl-2-(2-{4-[(1,3-trans)-3-{2-[(9S)-7-(4-chlorophenyl)-4,5,13-trimethyl-3-thia-1,8,11,12-tetraazatricyclo[8.3.0.0^2,^6]trideca-2(6),4,7,10,12-pentaen-9-yl]acetamido}cyclobutoxy]piperidin-1-yl}acetamido)butanoyl]-4-hydroxy-N-[(1S)-1-[4-(4-methyl-1,3-thiazol-5-yl)phenyl]ethyl]pyrrolidine-2-carboxamide] | < 0.01 µM | 100%
Cc1ncsc1-c1ccc([C@H](C)NC(=O)[C@@H]2C[C@@H](O)CN2C(=O)[C@@H](NC(=O)COc2ccnc(O[C@H]3C[C@@H](NC(=O)C[C@@H]4N=C(c5ccc(Cl)cc5)c5c(sc(C)c5C)-n5c(C)nnc54)C3)c2)C(C)(C)C)cc1 [Example 189] | 0.01 to 0.1 µM | 95.9%
Cc1ncsc1-c1ccc(CNC(=O)[C@@H]2C[C@@H](O)CN2C(=O)[C@@H](NC(=O)COCCOCCOCCNC(=O)C[C@@H]2N=C(c3ccc(Cl)cc3)c3c(sc(C)c3C)-n3c(C)nnc32)C(C)(C)C)cc1 [Example 42, (2S,4R)-1-[(2S)-2-(2-{2-[2-(2-{2-[(9S)-7-(4-chlorophenyl)-4,5,13-trimethyl-3-thia-1,8,11,12-tetraazatricyclo[8.3.0.0^2,^6]trideca-2(6),4,7,10,12-pentaen-9-yl]acetamido}ethoxy)ethoxy]ethoxy}acetamido)-3,3-dimethylbutanoyl]-4-hydroxy-N-{[4-(4-methyl-1,3-thiazol-5-yl)phenyl]methyl}pyrrolidine-2-carboxamide] | 0.01 to 0.1 µM | 98.6%
Cc1ncsc1-c1ccc(CNC(=O)[C@@H]2C[C@@H](O)CN2C(=O)[C@H](C(C)C)n2cc(-c3cccc(OCCNC(=O)C[C@@H]4N=C(c5ccc(Cl)cc5)c5c(sc(C)c5C)-n5c(C)nnc54)c3)cn2)cc1 [Example 163] | < 0.01 µM | 96.5%
Cc1ncsc1-c1ccc([C@H](C)NC(=O)[C@@H]2C[C@@H](O)CN2C(=O)[C@@H](NC(=O)Cc2ccc(O[C@H]3C[C@H](NC(=O)C[C@@H]4N=C(c5ccc(Cl)cc5)c5c(sc(C)c5C)-n5c(C)nnc54)C3)cc2)C(C)(C)C)cc1 [Example 193, (2S,4R)-1-[(2S)-3,3-dimethyl-2-(2-{4-[(1,3trans)-3-{2-[(9S)-7-(4-chlorophenyl)-4,5,13-trimethyl-3-thia-1,8,11,12-tetraazatricyclo[8.3.0.0^2,^6]trideca-2(6),4,7,10,12-pentaen-9-yl]acetamido}cyclobutoxy]phenyl}acetamido)butanoyl]-4-hydroxy-N-[(1S)-1-[4-(4-methyl-1,3-thiazol-5-yl)phenyl]ethyl]pyrrolidine-2-carboxamide] | < 0.01 µM | 100%

Further lines, with some results ahead:

DC50 | SMILES | Emax
> 1 µM | Cc1ncsc1-c1ccc(CNC(=O)[C@@H]2C[C@H](O)CN2C(=O)[C@@H](NC(=O)COCCCOCCCOc2ccc(NC(=O)C[C@@H]3N=C(c4ccc(Cl)cc4)c4c(sc(C)c4C)-n4c(C)nnc43)cc2)C(C)(C)C)cc1 [Example 18] | 39%
< 0.01 µM | Cc1ncsc1-c1ccc([C@H](C)NC(=O)[C@@H]2C[C@@H](O)CN2C(=O)[C@@H](NC(=O)CCc2cc(OC(C)CNC(=O)C[C@@H]3N=C(c4ccc(Cl)cc4)c4c(sc(C)c4C)-n4c(C)nnc43)ccc2F)C(C)(C)C)cc1 (stereo partly drawn) [Example 151] | 96%
0.01 to 0.1 µM | C=Cc1ccc(C2=N[C@@H](CC(=O)Nc3ccc(OCCCOCCCOCC(=O)N[C@H](C(=O)N4C[C@H](O)C[C@H]4C(=O)NCc4ccc(-c5scnc5C)cc4)C(C)(C)C)cc3)c3nnc(C)n3-c3sc(C)c(C)c32)cc1 [Example 63] | 98.5%
0.01 to 0.1 µM | Cc1ncsc1-c1ccc([C@H](C)NC(=O)[C@@H]2C[C@@H](O)CN2C(=O)[C@@H](NC(=O)CN2CCN(C3CC4(C3)CN(C(=O)C[C@@H]3N=C(c5ccc(Cl)cc5)c5c(sc(C)c5C)-n5c(C)nnc53)C4)[C@H](C)C2)C(C)(C)C)cc1 [Example 355] | 100%
< 0.01 µM | Cc1ncsc1-c1ccc([C@H](C)NC(=O)[C@@H]2C[C@@H](O)CN2C(=O)[C@@H](NC(=O)CCc2ccnc(O[C@H]3C[C@@H](NC(=O)C[C@@H]4N=C(c5ccc(Cl)cc5)c5c(sc(C)c5C)-n5c(C)nnc54)C3)c2)C(C)(C)C)cc1 [Example 191] | 95%
< 0.01 µM | Cc1ncsc1-c1ccc([C@H](C)NC(=O)[C@@H]2C[C@@H](O)CN2C(=O)[C@@H](NC(=O)c2cc3cc(OCCCNC(=O)C[C@@H]4N=C(c5ccc(Cl)cc5)c5c(sc(C)c5C)-n5c(C)nnc54)ccc3o2)C(C)(C)C)cc1 [Example 170, (2S,4R)-1-[(2S)-2-{[5-(3-{2-[(9S)-7-(4-chlorophenyl)-4,5,13-trimethyl-3-thia-1,8,11,12-tetraazatricyclo[8.3.0.0^2,^6]trideca-2(6),4,7,10,12-pentaen-9-yl]acetamido}propoxy)-1-benzofuran-2-yl]formamido}-3,3-dimethylbutanoyl]-4-hydroxy-N-[(1S)-1-[4-(4-methyl-1,3-thiazol-5-yl)phenyl]ethyl]pyrrolidine-2-carboxamide] | 97%
> 1 µM | Cc1ncsc1-c1ccc(CNC(=O)[C@@H]2C[C@@H](O)CN2C(=O)[C@H](c2cc(OCCN3CC[C@H](NC(=O)C[C@@H]4N=C(c5ccc(Cl)cc5)c5c(sc(C)c5C)-n5c(C)nnc54)C3)no2)C(C)C)cc1 [Example 309] | 18%
0.1 to 1 µM | Cc1ncsc1-c1ccc(CNC(=O)[C@@H]2C[C@@H](O)CN2C(=O)[C@@H](NC(=O)CCN2CCN(CCNC(=O)C[C@@H]3N=C(c4ccc(Cl)cc4)c4c(sc(C)c4C)-n4c(C)nnc43)CC2)C(C)(C)C)cc1 [Example 103] | 62.5%
0.01 to 0.1 µM | Cc1ncsc1-c1ccc(CNC(=O)[C@@H]2C[C@@H](O)CN2C(=O)[C@@H](NC(=O)COCCOCCOc2ccc3c(c2)c2c(C(N)=O)cc(-c4c(C)noc4C)cc2n3Cc2ccccc2)C(C)(C)C)cc1 [Example 174] | 96.4%
0.1 to 1 µM | CC(=O)N[C@H](C(=O)N1C[C@H](O)C[C@H]1C(=O)NCc1ccc(-c2scnc2C)cc1OCCOCCOc1ccc(C2=NC(CC(=O)Nc3ccccc3)c3nnc(C)n3-c3sc(C)c(C)c32)cc1)C(C)(C)C (stereo partly drawn) [Example 149] | 57.3%
< 0.01 µM | Cc1ncsc1-c1ccc(CNC(=O)[C@@H]2C[C@@H](O)CN2C(=O)[C@H](C(C)C)n2cc(-c3cccc(O[C@@H](C)CNC(=O)C[C@@H]4N=C(c5ccc(Cl)cc5)c5c(sc(C)c5C)-n5c(C)nnc54)c3)cn2)cc1 [Example 199] | 93%
> 1 µM | Cc1ncoc1-c1ccc(CNC(=O)[C@@H]2C[C@@H](O)CN2C(=O)[C@@H](C(C)C)n2cc(-c3ccnc(O[C@H]4C[C@@H](NC(=O)C[C@@H]5N=C(c6ccc(Cl)cc6)c6c(sc(C)c6C)-n6c(C)nnc65)C4)c3)cn2)cc1 [Example 294] | 43.4%
